Results as given in patent US8513232B2, “Substituted spirocyclic piperidine derivatives as histamine-3 (H3) receptor ligands” (Cephalon, Inc., priority 2008, dated 2013).
Read-outs that look alike come from different tables or passages of the source.

Columns and labels:
[1] = molecular target: T1, rat histamine H3 receptor (Rattus norvegicus, UniProt Q9QYN8); test: Rat H3 radioligand binding ([3H]-N-alpha-methylhistamine, SPA)
T1 construct: encoding the entire 445-amino-acid rat histamine H3 receptor; expressed in transfected cells; membrane preparation
T1 sequence (Q9QYN8 whole entry): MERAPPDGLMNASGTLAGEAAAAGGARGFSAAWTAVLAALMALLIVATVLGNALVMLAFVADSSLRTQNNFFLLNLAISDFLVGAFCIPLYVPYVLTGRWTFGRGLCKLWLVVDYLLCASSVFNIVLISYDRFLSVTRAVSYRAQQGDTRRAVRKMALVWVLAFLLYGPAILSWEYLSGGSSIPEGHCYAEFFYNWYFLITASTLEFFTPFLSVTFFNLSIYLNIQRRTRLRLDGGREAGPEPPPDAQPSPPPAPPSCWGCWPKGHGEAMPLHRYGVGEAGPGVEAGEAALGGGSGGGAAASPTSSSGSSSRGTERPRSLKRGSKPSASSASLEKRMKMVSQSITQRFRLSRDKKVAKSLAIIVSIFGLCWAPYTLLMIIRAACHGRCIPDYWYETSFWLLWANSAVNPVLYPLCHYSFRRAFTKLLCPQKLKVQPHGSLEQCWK
Outline: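 SPA-bead binding assay using [3H]-N-alpha-methylhistamine (approximately 1 nM final) with test compounds from 0.01 nM to 30 μM. Rat H3 receptor membranes came from stably transfected CHO-A3 cells; incubation ran 4 h at room temperature, in the dark, in Tris pH 7.4 buffer with MgCl2 and BSA. Clobenpropit (10 μM) gave non-specific binding.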

human H3 receptor = molecular target: T2, human H3 receptor (Homo sapiens, UniProt Q9Y5N1); test: Human H3 radioligand binding ([3H]-N-alpha-methylhistamine, SPA)
T2 construct: expressed in transfected cells
T2 sequence (Q9Y5N1 whole entry): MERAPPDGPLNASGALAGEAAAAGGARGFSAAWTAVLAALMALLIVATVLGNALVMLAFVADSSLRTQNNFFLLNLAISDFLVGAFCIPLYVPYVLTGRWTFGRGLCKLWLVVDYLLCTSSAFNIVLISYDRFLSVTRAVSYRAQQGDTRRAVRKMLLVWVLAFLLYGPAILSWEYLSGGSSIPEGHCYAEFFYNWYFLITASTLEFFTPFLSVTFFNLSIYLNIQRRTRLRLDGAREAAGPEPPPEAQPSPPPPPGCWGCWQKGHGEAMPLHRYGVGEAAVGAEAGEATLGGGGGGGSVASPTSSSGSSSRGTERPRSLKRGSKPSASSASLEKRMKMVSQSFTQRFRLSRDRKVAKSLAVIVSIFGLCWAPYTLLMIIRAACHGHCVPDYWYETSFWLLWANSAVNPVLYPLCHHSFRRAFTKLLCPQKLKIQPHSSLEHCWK
Outline: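 Compounds (0.01 nM-30 μM) competed with approximately 1 nM [3H]-N-alpha-methylhistamine for human H3 receptor in membranes of stably transfected CHO cells, 10 μg protein per well, in Tris-HCl pH 7.4/MgCl2/BSA buffer for 4 h at room temperature. Bound radioligand measured by scintillation proximity; 10 μM clobenpropit gave non-specific binding.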

[2] = rat H3 binding, Table D, read-out: Rat H3 Ki
[3] = human H3 binding, Table D, read-out: Human H3 Ki
[4] = Table C, rat H3 binding, read-out: Rat H3 Ki
[5] = Table C, human H3 binding, read-out: Human H3 Ki
[6] = Table A, rat H3 binding, read-out: Rat Ki
[7] = Table A, human H3 binding, read-out: Human Ki
[8] = Rat H3 binding, Table B, Examples 136-362, read-out: rat H3 binding Ki
[9] = Human H3 binding, Table B, Examples 136-362, read-out: hum H3 binding Ki

| Compound | melting point | Ki [1, 2] | Ki (human H3 receptor; [3]) | also measured |
| --- | --- | --- | --- | --- |
| c1cc2c(cc1N1CCOCC1)CCC1(CCN(C3CCC3)CC1)O2 [Example 403] | > 285 °C (dec.) | – | – | Ki [1, 4]: < 200 nM; Ki (human H3 receptor; [5]): < 200 nM |
| O=C1CCN1c1ccc2c(c1)CCC1(CCN(C3CCC3)CC1)O2 [Example 120] | 195 to 197 °C | – | – | Ki [1, 6]: < 200 nM; Ki (human H3 receptor; [7]): < 200 nM |
| c1cnc(Oc2ccc3c(c2)CCC2(CCN(C4CCC4)CC2)O3)cn1 [Example 415] | 256 to 258 °C | – | – | Ki [1, 4]: < 200 nM; Ki (human H3 receptor; [5]): < 200 nM |
| C1=C(c2ccc3c(c2)COC2(CCN(C4CCC4)CC2)O3)CCOC1 [Example 478] | 168 to 169 °C | – | – | Ki ([1]; read-out: Rat H3 kI): < 200 nM; Ki (human H3 receptor; read-out: Human H3 Ki): < 200 nM |
| OC1CC=C(c2ccc3c(c2)COC2(CCN(C4CCC4)CC2)O3)CC1 (stereo not drawn) [Example 525] | 128 to 132 °C | – | – | Ki ([1]; read-out: Rat H3 kI): < 200 nM; Ki (human H3 receptor; read-out: Human H3 Ki): < 200 nM |
| Cc1nnc(CCc2ccc3c(c2)COC2(CCN(C4CCC4)CC2)O3)o1 [Example 673] | 87 to 89 °C | < 200 nM | < 200 nM | – |
| O=c1ccc(-c2ccc3c(c2)CCC2(CCN(C4CCC4)CC2)O3)c[nH]1 [Example 429] | 260 to 262 °C | – | – | Ki [1, 4]: < 200 nM; Ki (human H3 receptor; [5]): < 200 nM |
| c1cnc(N2CCN(c3ccc4c(c3)CCC3(CCN(C5CCC5)CC3)O4)CC2)nc1 [Example 369] | 156 to 157 °C | – | – | Ki [1, 4]: < 200 nM; Ki (human H3 receptor; [5]): < 200 nM |
| c1nnc(CCc2ccc3c(c2)COC2(CCN(C4CCC4)CC2)O3)o1 [Example 675] | 83 to 85 °C | < 200 nM | < 200 nM | – |
| F[C@@H]1CCN(c2ccc3c(c2)CCC2(CCN(C4CCC4)CC2)O3)C1 [Example 414] | 275 to 280 °C | – | – | Ki [1, 4]: < 200 nM; Ki (human H3 receptor; [5]): < 200 nM |
| c1ccc(Oc2ccc3c(c2)CCC2(CCN(C4CCC4)CC2)O3)nc1 [Example 241] | 232 to 234 °C | – | – | Ki [1, 8]: < 200 nM; Ki (human H3 receptor; [9]): < 200 nM |
| COCCN1CC(COc2ccc3c(c2)CCC2(CCN(C4CCC4)CC2)O3)CC1=O (stereo not drawn) [Example 515] | 194 to 196 °C | – | – | Ki ([1]; read-out: Rat H3 kI): < 200 nM; Ki (human H3 receptor; read-out: Human H3 Ki): < 200 nM |
| O=C(NCCO)c1ccc(-c2ccc3c(c2)CCC2(CCN(C4CCC4)CC2)O3)cc1 [Example 140] | 145 to 147 °C | – | – | Ki [1, 8]: < 200 nM; Ki (human H3 receptor; [9]): < 200 nM |
| O=C(NC[C@H]1CCCO1)c1ccc(-c2ccc3c(c2)CCC2(CCN(C4CCC4)CC2)O3)cc1Cl [Example 572] | 62 to 64 °C | < 200 nM | < 200 nM | – |
| COCCNC(=O)CC1CCN(c2ccc3c(c2)COC2(CCN(C4CCC4)CC2)O3)CC1 [Example 588] | 150.1 to 152.2 °C | < 200 nM | < 200 nM | – |

Further lines, with some results ahead:

| melting point | Ki [1, 2] | Ki (human H3 receptor; [3]) | Compound | also measured |
| --- | --- | --- | --- | --- |
| 100 to 102 °C | – | – | COc1ccnc(-c2ccc3c(c2)COC2(CCN(C4CCC4)CC2)O3)n1 [Example 483] | Ki ([1]; read-out: Rat H3 kI): < 200 nM; Ki (human H3 receptor; read-out: Human H3 Ki): < 200 nM |
| 196 to 198 °C | < 200 nM | < 200 nM | O=c1cc(-c2ccc3c(c2)COC2(CCN(C4CCC4)CC2)O3)ccn1CC(F)(F)F [Example 772] | – |
| 66 to 74 °C | – | – | CN(C)C(=O)c1ccc(Nc2ccc3c(c2)COC2(CCN(C4CCC4)CC2)O3)cc1 [Example 169] | Ki [1, 8]: < 200 nM; Ki (human H3 receptor; [9]): < 200 nM |
| 124.6 to 126.4 °C | – | – | COCCNC(=O)c1ccc(-c2ccc3c(c2)COC2(CCN(C4CCC4)CC2)O3)cc1C [Example 255] | Ki [1, 8]: < 200 nM; Ki (human H3 receptor; [9]): < 200 nM |
| 221.5 to 223.7 °C | < 200 nM | < 200 nM | O=c1[nH]cc(-c2ccc3c(c2)COC2(CCN(C4CCC4)CC2)O3)cc1Cl [Example 658] | – |
| 150 to 152 °C | < 200 nM | < 200 nM | CCS(=O)(=O)c1ccc(-c2ccc3c(c2)COC2(CCN(C4CCC4)CC2)O3)s1 [Example 661] | – |
| 242 to 243 °C | – | – | O=C(Nc1nccs1)c1ccc(-c2ccc3c(c2)COC2(CCN(C4CCC4)CC2)O3)cc1 [Example 43] | Ki [1, 6]: < 200 nM; Ki (human H3 receptor; [7]): < 200 nM |
| 175 to 177 °C | < 200 nM | < 200 nM | CNC(=O)c1ccc(-c2ccc3c(c2)COC2(CCN(C4CCC4)CC2)O3)nc1 [Example 590] | – |
| 102 to 103 °C | < 200 nM | < 200 nM | Cc1cnc(C)c(-c2ccc3c(c2)COC2(CCN(C4CCC4)CC2)O3)n1 [Example 752] | – |
